Measured values reported in PubChem BioAssay (NCI).
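These data come from cells grown in 96-well plates and exposed to compound for 48 hours at five concentrations. TGI marks complete inhibition of growth.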

Legend:
Experiment in all cases: DTP human tumour cell line panel, 48 h
HL-60(TB) leukemia = tested on: HL-60(TB) leukemia
HCT-15 colon = tested on: HCT-15 colon
SK-MEL-2 melanoma = tested on: SK-MEL-2 melanoma
T-47D breast = tested on: T-47D breast
SF-295 CNS = tested on: SF-295 CNS
A549 NSCLC = tested on: A549 NSCLC
DU-145 prostate = tested on: DU-145 prostate
NCI-H226 lung = tested on: NCI-H226 lung
NCI-H460 lung = tested on: NCI-H460 lung
CAKI-1 renal = tested on: CAKI-1 renal
MDA-N = tested on: MDA-N
HT29 colon = tested on: HT29 colon
LOX IMVI melanoma = tested on: LOX IMVI melanoma
RXF 393 renal = tested on: RXF 393 renal
IGROV1 ovarian = tested on: IGROV1 ovarian
PC-3 prostate = tested on: PC-3 prostate
NCI/ADR-RES ovarian = tested on: NCI/ADR-RES ovarian
SNB-19 CNS = tested on: SNB-19 CNS

| Compound | TGI (HL-60(TB) leukemia) | TGI (HCT-15 colon) | TGI (SK-MEL-2 melanoma) | TGI (T-47D breast) | TGI (SF-295 CNS) | TGI (A549 NSCLC) | TGI (DU-145 prostate) | TGI (NCI-H226 lung) | TGI (NCI-H460 lung) | TGI (CAKI-1 renal) | TGI (MDA-N) | TGI (HT29 colon) | TGI (LOX IMVI melanoma) | TGI (RXF 393 renal) | TGI (IGROV1 ovarian) | TGI (PC-3 prostate) | TGI (NCI/ADR-RES ovarian) | TGI (SNB-19 CNS) |
| --- | --- | --- | --- | --- | --- | --- | --- | --- | --- | --- | --- | --- | --- | --- | --- | --- | --- | --- |
| COc1ccc(OC)c(N=Cc2cc(OC)c(OC)c(OC)c2)c1 | > 100 µM | > 100 µM | > 100 µM | > 100 µM | > 100 µM | > 100 µM | > 100 µM | > 100 µM | > 100 µM | > 100 µM | > 100 µM | > 100 µM | > 100 µM | > 100 µM | > 100 µM | > 100 µM | > 100 µM | > 100 µM |
| CCOc1cc(/C=N/c2nc3cc4sc(/N=C/c5ccc(O)c(OCC)c5)nc4cc3s2)ccc1O | 19.9 µM | > 100 µM | > 100 µM | > 100 µM | > 100 µM | > 100 µM | > 100 µM | > 100 µM | > 100 µM | > 100 µM | > 100 µM | > 100 µM | > 100 µM | > 100 µM | > 100 µM | > 100 µM | > 100 µM | > 100 µM |
